Earlier results on 1 compound are cited in patent US20220079967A1, “COMPOSITION FOR IMPROVING VASCULAR ENDOTHELIAL FUNCTION” (SAN-EI GEN F.F.I., INC., priority 2019, published 2022).

In the series the test system is endothelial function and blood pressure. Particulars: administered to human, also with increased dosage (Bondonno et al. 2016).

Turning to `O=c1c(O[C@@H]2O[C@H](CO)[C@@H](O)[C@H](O)[C@H]2O)c(-c2ccc(O)c(O)c2)oc2cc(O)cc(O)c12` [isoquercitrin], the “effect on FMD value” is on record as “does not affect” and the “effect on blood pressure” value is listed as “does not affect”.
